Assay results from patent publication US20220402917A1, “COMPOUND AS SMALL MOLECULE INHIBITOR PD-1/PD-L1 AND APPLICATION THEREOF” (MEDSHINE DISCOVERY INC., priority 2019, published 2022).

What was measured:
[1] = molecular target: T1, PD-L1 in MDA-MR-231 cells (Homo sapiens, UniProt Q9NZQ7); assay: Effect on expression level of PD-L1 in MDA-MR-231 cells (FACS); format: cell-based; conditions: 24 hours incubation, FACS detection of cell surface PD-L1
T1 construct: endogenous in cells; host or cells: MDA-MB-231
Procedure, shortened: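 MDA-MB-231 cells (1×10^5/well) were incubated 24 h at 37 °C with 5-fold serially diluted compounds. Cells were detached with 10 mM EDTA, then stained with anti-human PD-L1 and LIVE/DEAD dye (4 °C, 30 min) and fixed. Surface PD-L1 was measured by flow cytometry.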

[2] = Pharmacokinetic test in C57BL/6 mice; format: in vivo; conditions: mouse, plasma, male C57BL/6 mice
Experimental: Experimental Example 4: Pharmacokinetic Test
Experimental purpose: To study the pharmacokinetics of compounds in C57BL/6 mice.
Experimental materials: C57BL/6 mice (male, 8 weeks old, body weight 25 g-30 g)
Experimental operation: The pharmacokinetic characteristics of rodents after intravenous (IV) and oral (PO) administration of compounds were tested in standard protocols. In the experiment, the candidate compounds were formulated into 1 mg/mL clear solutions, and administered to mice via a single intravenous injection and oral administration. The vehicle of intravenous and oral administration was 5% DMSO/5% polyethylene glycol 15-hydroxystearate (Solutol)/90% aqueous solution. Four male C57BL/6 mice were used in the experiment, wherein two mice were administered intravenously at a dose of 1 mg/kg, and the plasma samples were collected 0.0833, 0.25, 0.5, 1, 2, 4, 6, 8 and 24 h after administration, the other two mice were given oral gavage at a dose of 10 mg/kg, and the plasma samples were collected 0.25, 0.5, 1, 2, 4, 6, 8, and 24 h after administration. Whole blood samples within 24 hours were collected, centrifuged at 3000 g for 15 minutes, and the supernatant was separated to obtain plasma samples. Acetonitrile solution containing internal standard was added thereto to precipitate proteins, the mixture was thoroughly mixed and centrifuged to obtain the supernatant for injection. The plasma concentration was quantified by LC-MS/MS analysis method, and the pharmacokinetic parameters were calculated, such as peak concentration (Cmax), clearance (CL), half-life (T1/2), […] (Vdss), area under the drug-time curve (AUC0-last), bioavailability (F) and so on.

T1 sequence (Q9NZQ7 19-290): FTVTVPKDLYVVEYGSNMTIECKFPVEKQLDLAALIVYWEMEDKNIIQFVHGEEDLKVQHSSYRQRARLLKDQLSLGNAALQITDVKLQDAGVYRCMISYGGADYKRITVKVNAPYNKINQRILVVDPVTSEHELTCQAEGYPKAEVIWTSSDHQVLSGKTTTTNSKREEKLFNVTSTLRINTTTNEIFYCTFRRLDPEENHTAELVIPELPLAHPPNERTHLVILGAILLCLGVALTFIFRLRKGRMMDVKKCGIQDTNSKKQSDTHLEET

IC50 [1]: 5.73 nM | bioavailability ([2]; PO 10 mg/kg vs IV 1 mg/kg, read-out: Bioavailability F): 34.9% | Cmax ([2]; IV 1 mg/kg, PO 10 mg/kg (route not given for Cmax), read-out: Peak concentration Cmax): 117 nM | clearance ([2]; IV 1 mg/kg, read-out: Clearance CL): 98.4 mL/min/kg | half-life ([2]; IV 1 mg/kg, read-out: Half-life T1/2 (IV) (converted)): 11.6 h | Vd ([2]; IV 1 mg/kg, read-out: Tissue distribution Vdss): 65.6 L/kg | AUC(0-t) ([2]; PO 10 mg/kg, read-out: Area under the drug-time curve AUC0-last PO): 0.796 µM·h
Structure (SMILES): COc1nc(-c2cccc(-c3cccc(NC(=O)c4cc(C)c5c(n4)CN(CCO)CC5)c3Cl)c2Cl)cnc1CN1CC(O)C1 [Compound 21]
